The source of these data is patent US20150210660A1, “ALICYCLIC EPOXY COMPOUND AND METHOD FOR PRODUCING SAME” (DAICEL CORPORATION, priority 2012, published 2015).

Data set [1] can be described thus: Evaluation of reactivity with acid (stirring with 2-ethylhexanoic acid in 1,3,5-trimethylbenzene at 150° C.). Type of data set: physicochemical. The note with it: for Oxirane oxygen content: HBr titrimetry; for Acid value: JIS K 0070. The procedure: A mixture was prepared by blending 5.2 g of the 3,4-epoxycyclohexylmethyl 3,5,5-trimethylhexanoate prepared in Example 1 (product of Example 1), 1.4 g of 2-ethylhexanoic acid (trade name Octanoic Acid, supplied by Kyowa Hakko Chemical Co., Ltd.), and 8.5 g of 1,3,5-trimethylbenzene (reagent, supplied by Wako Pure Chemical Industries, Ltd.). The mixture was stirred at 150° C. for 6 hours. The acid value and oxirane oxygen content of the mixture were measured before the stirring with heating, and 2 hours, 4 hours, and 6 hours into the stirring.
The oxirane oxygen content measurement in the evaluation of reactivity with acid was performed by HBr titrimetry in which titration was performed with a N/10 hydrogen bromide solution in acetic acid and with crystal violet as an indicator. The acid value measurement was performed in conformance with a method described in JIS K 0070.
Instead of 3,4-epoxycyclohexylmethyl 3,5,5-trimethylhexanoate, there were prepared 3,4-epoxycyclohexylmethyl(3,4-epoxy)cyclohexane carboxylate (trade name CELLOXIDE 2021P, supplied by Daicel Corporation), 4-vinylcyclohexene oxide (trade name CELLOXIDE 2000, supplied by Daicel Corporation), 1-methyl-4-(2-methyloxiranyl)-7-oxabicyclo[4.1.0]heptane (trade name CELLOXIDE 3000, supplied by Daicel Corporation), D-limonene oxide (supplied by Nippon Terpene Chemicals, Inc.), and di-2-ethylhexyl epoxyhexahydrophthalate (trade name SANSO CIZER E-PS, supplied by New Japan Chemical Co., Ltd.). These epoxides were used in charged amounts given in Table 1 and subjected to evaluation of reactivity with an acid (2-ethylhexanoic acid) by the above procedure.
Table 2 also gives acid residual percentages as calculated from the acid values. The acid residual percentages are percentages of the acid present in the system (in the mixture) at the individual timings (after 2 hours, 4 hours, and 6 hours) in which the amount of the acid present in the system before the stirring with heating (0 hour) was defined as 100%.

Data set [2] is described as follows: Volatility evaluation: boiling point measurement under reduced pressure using a distillator. Type of data set: physicochemical. On the procedure: The 3,4-epoxycyclohexylmethyl 3,5,5-trimethylhexanoate prepared in Example 1 was subjected to boiling point measurement under reduced pressure using a distillator.
The measured boiling points at the individual pressures were plotted on a logarithmic graph (semilogarithmic graph with the logarithmic scale indicating the pressure) to give an approximate curve. Using the approximate curve, a boiling point of the product at normal atmospheric pressure (760 Torr; 101325 Pa) was calculated and found to be 307° C.

Where [3] appears, read: stirring time 0 hr (before heating), defined as 100%.
Where [4] appears, read: stirring time 0 hr (before heating).
[5] abbreviates: stirring time 2 hrs at 150° C., calculated from acid values, 0 hr = 100%.
The mark [6] stands for this setting: stirring time 4 hrs at 150° C., calculated from acid values, 0 hr = 100%.
[7] abbreviates: stirring time 6 hrs at 150° C., calculated from acid values, 0 hr = 100%.

For the molecule `CCCCC(CC)COC(=O)C1CC2OC2CC1C(=O)OCC(CC)CCCC` (centres unmarked) [SANSO CIZER E-PS, di-2-ethylhexyl epoxyhexahydrophthalate], the Acid residual percentage in data set [1] (setting [3]) is reported as 100%; in data set [1] (setting [5]) it was 89%; in data set [1] (setting [6]), 84%; in data set [1] (setting [7]), 73%. The Oxirane oxygen content in data set [1] (setting [4]) came out at 1.84%; in data set [1] (stirring time 2 hrs at 150° C.) it was 1.72%; in data set [1] (stirring time 4 hrs at 150° C.), 1.63%; in data set [1] (stirring time 6 hrs at 150° C.), 1.53%. In addition, the Acid value in data set [1] (setting [4]) amounted to 38.13 KOH-mg/g; in data set [1] (stirring time 2 hrs at 150° C.) it was 33.80 KOH-mg/g; in data set [1] (stirring time 4 hrs at 150° C.), 32.16 KOH-mg/g; in data set [1] (stirring time 6 hrs at 150° C.), 27.97 KOH-mg/g.

Turning to `C=CC1CCC2OC2C1` (centres unmarked) [CELLOXIDE 2000, 4-vinylcyclohexene oxide], the Acid residual percentage is listed as 100% in data set [1] (setting [3]), 66% in data set [1] (setting [5]), 49% in data set [1] (setting [6]) and 36% in data set [1] (setting [7]). Moreover, the Oxirane oxygen content is 1.92% in data set [1] (setting [4]), 146% in data set [1] (stirring time 2 hrs at 150° C.), 1.25% in data set [1] (stirring time 4 hrs at 150° C.) and 1.15% in data set [1] (stirring time 6 hrs at 150° C.). Besides, the Acid value in data set [1] (setting [4]) was determined as 35.90 KOH-mg/g; in data set [1] (stirring time 2 hrs at 150° C.), 23.80 KOH-mg/g; in data set [1] (stirring time 4 hrs at 150° C.), 17.54 KOH-mg/g; in data set [1] (stirring time 6 hrs at 150° C.), 12.90 KOH-mg/g.

As for `C=C(C)C1CCC2(C)OC2C1` [D-Limonene oxide, D-limonene oxide], the Acid residual percentage in data set [1] (setting [3]) is 100%; in data set [1] (setting [5]), 68%; in data set [1] (setting [6]), 58%; in data set [1] (setting [7]) it was 50%. Moreover, the Oxirane oxygen content in data set [1] (setting [4]) is 1.92%; in data set [1] (stirring time 2 hrs at 150° C.), 1.56%; in data set [1] (stirring time 4 hrs at 150° C.) it was 1.38%; in data set [1] (stirring time 6 hrs at 150° C.) it was 1.25%. Moreover, the Acid value in data set [1] (setting [4]) is recorded as 38.36 KOH-mg/g; in data set [1] (stirring time 2 hrs at 150° C.) it was 26.27 KOH-mg/g; in data set [1] (stirring time 4 hrs at 150° C.) it was 22.44 KOH-mg/g; in data set [1] (stirring time 6 hrs at 150° C.), 19.15 KOH-mg/g.

Turning to `CC1(C2CCC3(C)OC3C2)CO1` (centres unmarked) [CELLOXIDE 3000, 1-methyl-4-(2-methyloxiranyl)-7-oxabicyclo[4.1.0]heptane], the Acid residual percentage was 100% in data set [1] (setting [3]), 68% in data set [1] (setting [5]), 61% in data set [1] (setting [6]) and 52% in data set [1] (setting [7]). The Oxirane oxygen content in data set [1] (setting [4]) turned out to be 1.81%; in data set [1] (stirring time 2 hrs at 150° C.) it was 0.91%; in data set [1] (stirring time 4 hrs at 150° C.), 0.71%; in data set [1] (stirring time 6 hrs at 150° C.) it was 0.61%. Further, the Acid value stood at 36.04 KOH-mg/g in data set [1] (setting [4]), 24.52 KOH-mg/g in data set [1] (stirring time 2 hrs at 150° C.), 22.04 KOH-mg/g in data set [1] (stirring time 4 hrs at 150° C.) and 18.65 KOH-mg/g in data set [1] (stirring time 6 hrs at 150° C.).

Broadly, the boiling point is the temperature of boiling at a given pressure. In the case of `CC(CC(=O)OCC1CCC2OC2C1)CC(C)(C)C` (centres unmarked) [Product of Example 1, 3,4-epoxycyclohexylmethyl 3,5,5-trimethylhexanoate], in data set [2] (760 Torr, 101325 Pa, calculated from approximate curve of the measured boiling points), the “boiling point at normal atmospheric pressure” value is 307 °C. The boiling point in data set [2] (at 11 Torr (1467 Pa)) was found to be 191 °C; in data set [2] (at 31 Torr (4133 Pa)), 218 °C; in data set [2] (at 50 Torr (6666 Pa)), 233 °C. In data set [1] (as compared with the other epoxides of Table 2), the “acid-scavenging capability (reactivity with the acid)” value is recorded as “higher acid-scavenging capability”. Further, the Acid residual percentage was 100% in data set [1] (setting [3]), 54% in data set [1] (setting [5]), 35% in data set [1] (setting [6]) and 27% in data set [1] (setting [7]). In addition, the Oxirane oxygen content in data set [1] (setting [4]) is listed as 1.82%; in data set [1] (stirring time 2 hrs at 150° C.) it was 1.20%; in data set [1] (stirring time 4 hrs at 150° C.) it was 1.00%; in data set [1] (stirring time 6 hrs at 150° C.), 0.89%. The Acid value is listed as 37.66 KOH-mg/g in data set [1] (setting [4]), 20.32 KOH-mg/g in data set [1] (stirring time 2 hrs at 150° C.), 13.13 KOH-mg/g in data set [1] (stirring time 4 hrs at 150° C.) and 9.98 KOH-mg/g in data set [1] (stirring time 6 hrs at 150° C.).

For `O=C(OCC1CCC2OC2C1)C1CCC2OC2C1` (centres unmarked) [CELLOXIDE 2021P, 3,4-epoxycyclohexylmethyl(3,4-epoxy)cyclohexane carboxylate], the Acid residual percentage in data set [1] (setting [3]) is 100%; in data set [1] (setting [5]), 57%; in data set [1] (setting [6]), 39%; in data set [1] (setting [7]), 30%. For the same molecule, the Oxirane oxygen content in data set [1] (setting [4]) amounted to 2.00%; in data set [1] (stirring time 2 hrs at 150° C.) it was 1.51%; in data set [1] (stirring time 4 hrs at 150° C.) it was 1.33%; in data set [1] (stirring time 6 hrs at 150° C.), 1.11%. For the same molecule, the Acid value in data set [1] (setting [4]) was 37.56 KOH-mg/g; in data set [1] (stirring time 2 hrs at 150° C.), 21.23 KOH-mg/g; in data set [1] (stirring time 4 hrs at 150° C.), 14.54 KOH-mg/g; in data set [1] (stirring time 6 hrs at 150° C.), 11.22 KOH-mg/g.
